We go through 21 compounds from US5436260A, “Angiotensin II receptor antagonists” (Warner-Lambert Company, priority 1994, dated 1995).

pIC50: −log10 of the molar value. Counter-ions that a name gives are not always drawn.

In this experiment the target is T1, AT1 receptor (Rattus norvegicus, UniProt P25095).
T1 construct: rat liver membranes; from tissue; host or cells: rat liver membranes
T1 sequence (P25095 1-359): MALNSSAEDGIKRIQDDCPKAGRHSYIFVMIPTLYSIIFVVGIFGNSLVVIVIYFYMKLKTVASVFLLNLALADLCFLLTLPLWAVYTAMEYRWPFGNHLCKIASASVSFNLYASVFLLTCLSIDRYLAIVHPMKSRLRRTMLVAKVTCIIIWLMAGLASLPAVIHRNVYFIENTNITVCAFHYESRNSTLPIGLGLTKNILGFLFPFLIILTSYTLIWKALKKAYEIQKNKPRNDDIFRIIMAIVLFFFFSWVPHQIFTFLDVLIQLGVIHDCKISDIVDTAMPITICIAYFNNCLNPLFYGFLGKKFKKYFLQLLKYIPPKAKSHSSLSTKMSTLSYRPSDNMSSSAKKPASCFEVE
Briefly: [^3 H]angiotensin II binding to rat liver membranes (AT1 test). Conditions: inhibition of [^3 H]angiotensin II binding. As to the method: The compounds of Formula I or Ia are antagonists of angiotensin II. Dudley, D. T., et al, Molecular Pharmacology 1990;38:370-377 reported the existence of 2 subclasses of angiotensin II binding sites in rabbit adrenal gland and uterus and in the rat liver which differ in their tissue distribution and affinity for various peptide and nonpeptide ligands. Thus, the compounds of Formula I or Ia were tested for their ability to inhibit [^3 H]angiotensin II binding to rat liver membranes (AT1 test) according to the methods described by Dudley, D. T., et al, Molecular Pharmacology 1990;38:370-7. […] It is well established that compounds which antagonize the effect of angiotensin II at the AT1 receptor have value for treatment of hypertension and heart failure.

With `CCCCc1ncc(/C=C2/C(=O)N(CCCC)C(=O)N2CCc2ccccc2)n1Cc1ccc(C(=O)OC)cc1` [Example 41, Methyl Z-4-[[2-butyl-5-[[1-butyl-2,5-dioxo-3-(2-phenylethyl)-4-imidazolidinylidene]methyl]-1H-imidazol-1-yl]methyl]benzoate mono hydrochloride], the negative logarithm of the IC50 (pIC50) was 7.51.

With `CCCCc1ncc(/C=C2/C(=O)N(CCCC)C(=O)N2C(c2ccccc2)c2ccccc2)n1Cc1ccc(C(=O)OC)cc1` [Example 42, Methyl Z-4-[[2-butyl-5-[[1-butyl-2,5-dioxo-3-(diphenylmethyl)-4-imidazolidinylidene]methyl]-1H-imidazol-1-yl]methyl]benzoate mono hydrochloride], the negative logarithm of the IC50 (pIC50) is 6.05. The same measure for `CCCCc1ncc(/C=C2/C(=O)N(CCCC)C(=O)N2CC2CCCCC2)n1Cc1ccc(C(=O)OC)cc1` [Example 43, Methyl Z-4-[[2-butyl-5-[[1-butyl-3-(cyclohexylmethyl)-2,5-dioxo-4-imidazolidinylidene]methyl]-1H-imidazol-1-yl]methyl]benzoate mono hydrochloride]: 8.48. The same measure for `CCCCc1ncc(/C=C2/C(=O)N(CCCC)C(=O)N2Cc2nn[nH]n2)n1Cc1ccc(C(=O)OC)cc1` [Example 44, Methyl Z-4-[[2-butyl-5-[[1-butyl-2,5-dioxo-3-(1H-tetrazol-5-ylmethyl)-4-imidazolidinylidene]methyl]-1H-imidazol-1-yl]methyl]benzoate monohydrochloride]: 7.38; for `CCCCCCN1C(=O)N/C(=C\c2cnc(CCCC)n2Cc2ccc(C(=O)OC)cc2)C1=O` [Example 47, Methyl ZX-4-[[2-butyl-5-[(1-hexyl-2,5-dioxo-4-imidazolidinylidene)methyl]-1H-imidazol-1-yl]m,ethyl]benzoate]: under 6.00. Turning to `CCCCCCN1C(=O)/C(=C/c2cnc(CCCC)n2Cc2ccc(C(=O)OC)cc2)N(CCCC)C1=O` [Example 48, Methyl Z-4-[[2-butyl-5-[(3-butyl-1-hexyl-2,5-dioxo-4-imidazolidinylidene)methyl]-1H-imidazol-1-yl]methyl]benzoate monohydrochloride], the pIC50 was 7.84. As for `CCCCCCN1C(=O)/C(=C/c2cnc(CCCC)n2Cc2ccc(C(=O)OC)cc2)N(Cc2ccsc2)C1=O` [Example 49, Methyl Z-4-[[2-butyl-5-[[1-hexyl-2,5-dioxo-3-(3-thienylmethyl)-4-imidazolidinylidene]methyl]-1H-imidazol-1-yl]methyl]benzoate monohydrochloride], the figure is 8.02; as for `CCCCCCN1C(=O)/C(=C/c2cnc(CCCC)n2Cc2ccc(C(=O)OC)cc2)N(Cc2ccccc2)C1=O` [Example 50, Methyl Z-4-[[2-butyl-5-[[1-hexyl-2,5-dioxo-3-(phenylmethyl)-4-imidazolidinylidene]methyl]-1H-imidazol-1-yl]methyl]benzoate monohydrochloride], 7.58; as for `CCCCCCN1C(=O)/C(=C/c2cnc(CCCC)n2Cc2ccc(C(=O)OC)cc2)N(Cc2csc(C)n2)C1=O` [Example 51, Methyl Z-4-[[2-butyl-5-[1-hexyl-3-[(2-methyl-4-thiazolyl)methyl-2,5-dioxo-4-imidazolidinylidene]methyl]-1H-imidazol-1-yl]methyl]benzoate dihydrochloride], 8.27. As for `CCCCc1ncc(/C=C2\NC(=O)N(COC)C2=O)n1Cc1ccc(C(=O)OC)cc1` [Example 53], the figure is under 6.00; as for `CCCCc1ncc(/C=C2/C(=O)N(COC)C(=O)N2CCCC)n1Cc1ccc(C(=O)OC)cc1` [Example 54, Methyl Z-4-[[2-butyl-5-[[3-butyl-1-(methoxymethyl)-2,5-dioxo-4-imidazolidinylidene]methyl]-1H-imidazol-1-yl]methyl]benzoate monohydrochloride], 7.53.

`CCCCc1ncc(/C=C2/C(=O)N(COC)C(=O)N2Cc2ccccc2)n1Cc1ccc(C(=O)OC)cc1` [Example 55, Methyl Z-4-[[2-butyl-5-[[1-(methoxymethyl)-2,5-dioxo-3-(phenylmethyl)-4-imidazolidinylidene]methyl]-1H-imidazol-1-yl]methyl]benzoate monohydrochloride]: the pIC50 was 7.89. On to `CCCCc1ncc(/C=C2/C(=O)N(COC)C(=O)N2Cc2csc(C)n2)n1Cc1ccc(C(=O)OC)cc1` [Example 56, Methyl Z-4-[[2-butyl-5-[[1-(methoxymethyl)-3-[(2-methyl-4-thiazolyl)methyl]-2,5-dioxo-4-imidazolidinylidene]methyl]-1H-imidazol-1-yl]methyl]benzoate dihydrochloride], for which the pIC50 was 7.32.

`CCCCc1ncc(/C=C2/C(=O)N(CCCC)C(=O)N2Cc2cccc[n+]2[O-])n1Cc1ccc(C(=O)OC)cc1` [Example 57, Methyl Z-4-[[2-butyl-5-[[1-butyl-2,5-dioxo-3-[(2-pyridinyl-N-oxide)-methyl]-4-imidazolidinylidene]methyl]-1H-imidazol-1-yl]methyl]benzoate] gave a pIC50 of 6.59. As for `CCCCc1ncc(/C=C2/C(=O)N(CCCC)C(=O)N2Cc2ccccn2)n1Cc1ccc(C(=O)OC)cc1` [Example 58, Methyl Z-4-[[2-butyl-5-[[1-butyl-2,5-dioxo-3-(2-pyridinylmethyl)-4-imidazolidinylidene]methyl]-1H-imidazol-1-yl]methyl]benzoate dihydrochloride], the figure is 8.24; as for `CCCCc1ncc(/C=C2/C(=O)N(CCCC)C(=O)N2Cc2csc(C)n2)n1Cc1ccc(C(=O)O)cc1` [Example 59, Z-4-[[2-butyl-5-[[1-butyl-3-[(2-methyl-4thiazolyl)methyl]-2,5-dioxo-4-imidazolidinylidene]methyl]-1H-imidazol-1-yl]methyl]benzoic acid], 8.92; as for `CCCCc1ncc(/C=C2\C(=O)N(CCCC)C(=O)N2Cc2csc(C)n2)n1Cc1ccc(C(=O)O)cc1` [Example 60, E-4-[[2-butyl-5-[[1-butyl-3-[(2-methyl-4-thiazolyl)methyl]-2,5-dioxo-4-imidazolidinylidene]methyl]-1H-imidazol-1-yl]methyl]benzoic acid], 8.58. The same measure for `CCCCc1ncc(/C=C2/C(=O)N(CCCC)C(=O)N2Cc2ccccc2Cl)n1Cc1ccc(C(=O)OC)cc1` [Example 61, Methyl Z-4-[[2-butyl-5-[[1-butyl-3-[(2-chlorophenyl)methyl]-2,5-dioxo-4-imidazolidinylidene]methyl]-1H-imidazol-1-yl-]methyl]benzoate monohydrochloride]: 7.22. The same measure for `CCCCc1ncc(/C=C2/C(=O)N(CCCC)C(=O)N2Cc2csc(N)n2)n1Cc1ccc(C(=O)OC)cc1` [Example 62, Methyl Z-4-[[2-butyl-5-[[1-butyl-3-[(2-amino-4-thiazolyl)methyl]-2,5-dioxo-4-imidazolidinylidene]methyl]-1H-imidazol-1-yl]methyl]benzoate dihydrochloride]: 8.92. In the case of `CCCCc1ncc(/C=C2/C(=O)NC(=O)N2Cc2cccs2)n1Cc1ccc(C(=O)OC)cc1` [Example 63], the pIC50 is 8.29. In the case of `CCCCc1ncc(/C=C2/C(=O)NC(=O)N2Cc2ccc(Cl)cc2)n1Cc1ccc(C(=O)OC)cc1` [Example 64, Methyl Z-4-[[2-butyl-5-[[3-[(4-chlorophenyl)methyl]-2,5-dioxo-4-imidazolidinylidene]methyl]-1H-imidazol-1-yl]methyl]benzoate monohydrochloride], the negative-log IC50 (pIC50) was 8.37.
